Values of other authors, collected in publication PMC8497432 (ChemMedChem, 2021).

Conditions: ref 6f

In the case of UNC3866, the cell permeability is listed as “approximately 5%”.
